Data taken from US20250340564A1, “COMPOSITIONS USEFUL FOR MODULATING SPLICING” (SKYHAWK THERAPEUTICS, INC., priority 2021, published 2025).

What was measured:
[1] = test system: ATXN3 transcripts containing exon 4 (E4E5) in SK-N-MC cells; assay: ATXN3 Quantitative Splicing Assay (qPCR, E4E5 transcripts containing exon 4); format: cell-based; settings: Homo sapiens, 24 h treatment, qPCR primers/probe E4E5
Method: Human neuroblastoma SK-N-MC cells were plated in 384-well plates at 20,000 cells/well. Twenty-four hours after plating, cells were treated with compounds for 24 h at appropriate concentrations ranging from 30 μM to 0.6 nM (0.3% DMSO). Treated cells were lysed in 15 μL of lysis buffer, and cDNA was synthesized using the Fast Advanced Cells-to-Ct kit. Two μL of each cDNA was used in qPCR reactions to confirm the exon 4 skipped transcripts of ATXN3. A second set of primers/probe E4E5 was used to detect the transcripts containing exon 4. The third set of primers/probe E8E9 was used to detect total gene level of ATXN3. The qPCR reactions were prepared in 384-well plates in 10 μL volume, using TaqMan™ Fast Advanced Master Mix with primers and probes shown in the table below. Reactions were run in a Quant Studio 6 qPCR instrument with default settings.
The primers and probes are listed below in Table 4.
(§1) Compounds were tested as outlined in Examples 2 and 3 above and the results are shown below in Table 5.

[2] = test system: total ATXN3 protein levels in SK-N-MC cells; assay: ATXN3 Total Protein Assay (MSD); format: cell-based; settings: Homo sapiens, 48 hours incubation
Method: Human neuroblastoma SK-N-MC cells were seeded at 10,000 cells/well in 384 well plates one day prior to compound treatment. The concentrations of compounds were tested at appropriate doses ranging from 30 μM to 0.6 nM. After incubation for 48 hours, the cells were lysed with 25 μL of lysis buffer containing protease inhibitors, and total ATXN3 protein levels were assessed by Mesoscale Discovery (MSD) assay developed with one pair of anti-ATXN3 antibodies. The capture and detect antibodies were raised in mouse and rabbit respectively. Anti-rabbit MSD-ST antibody was used for secondary antibody.
ATXN3 recombinant protein was used for standards. The readouts were captured with 35 μL of MSD read buffer and multi-array 384-well high binding plates.
as §1

SMILES | IC50 [1] | IC50 [2]
Cc1c(C[C@H](C)N)sc2c(NCc3ccncc3)cnnc12 [Compound 1, 6-[(2S)-2-aminopropyl]-7-methyl-N-[(pyridin-4-yl)methyl]thieno[3,2-c]pyridazin-4-amine] | 5 to 10 µM | 5 to 10 µM
Cc1c(C[C@@H](N)CO)sc2c(NCc3ccncc3)cnnc12 [Compound 3, (2R)-2-amino-3-(7-methyl-4-{[(pyridin-4-yl)methyl]amino}thieno[3,2-c]pyridazin-6-yl)propan-1-ol] | 5 to 10 µM | 10 to 40 µM
Cc1c(C[C@H](C)N)sc2c(NCc3ccncc3F)cnnc12 [Compound 4, 6-[(2S)-2-aminopropyl]-N-[(3-fluoropyridin-4-yl)methyl]-7-methylthieno[3,2-c]pyridazin-4-amine] | 5 to 10 µM | 10 to 40 µM
Cc1c(C[C@@H](N)CO)sc2c(NCc3ccncc3F)cnnc12 [Compound 5, (2R)-2-amino-3-(4-{[(3-fluoropyridin-4-yl)methyl]amino}-7-methylthieno[3,2-c]pyridazin-6-yl)propan-1-ol] | 5 to 10 µM | 10 to 40 µM
Cc1c(C[C@H](C)N)sc2c(NCc3ccccc3F)cnnc12 [Compound 6, 6-[(2S)-2-aminopropyl]-N-[(2-fluorophenyl)methyl]-7-methylthieno[3,2-c]pyridazin-4-amine] | 0.501 to 5 µM | 5 to 10 µM
Cc1c(C[C@@H](N)CO)sc2c(NCc3ccccc3F)cnnc12 [Compound 7, (2R)-2-amino-3-(4-{[(2-fluorophenyl)methyl]amino}-7-methylthieno[3,2-c]pyridazin-6-yl)propan-1-ol] | 10 to 40 µM | 10 to 40 µM
C[C@H](N)Cc1sc2c(NCc3ccncc3)cnnc2c1Cl [Compound 8, 6-[(2S)-2-aminopropyl]-7-chloro-N-[(pyridin-4-yl)methyl]thieno[3,2-c]pyridazin-4-amine] | 10 to 40 µM | 10 to 40 µM
CC[C@H](N)Cc1sc2c(NCc3ccncc3)cnnc2c1C [Compound 10, 6-[(2S)-2-aminobutyl]-7-methyl-N-[(pyridin-4-yl)methyl]thieno[3,2-c]pyridazin-4-amine] | 10 to 40 µM | 10 to 40 µM
Cc1c(C[C@@H](N)CCO)sc2c(NCc3ccncc3)cnnc12 [Compound 11, (3S)-3-amino-4-(7-methyl-4-{[(pyridin-4-yl)methyl]amino}thieno[3,2-c]pyridazin-6-yl)butan-1-ol] | 10 to 40 µM | 10 to 40 µM
C[C@H](N)Cc1sc2c(NCc3ccncc3)cnnc2c1Br [Compound 20, 6-[(2S)-2-aminopropyl]-7-bromo-N-[(pyridin-4-yl)methyl]thieno[3,2-c]pyridazin-4-amine] | 5 to 10 µM | 10 to 40 µM
Cc1c(C[C@H](C)N)sc2c(NCc3ccncn3)cnnc12 [Compound 22, 6-[(2S)-2-aminopropyl]-7-methyl-N-[(pyrimidin-4-yl)methyl]thieno[3,2-c]pyridazin-4-amine] | 10 to 40 µM | 10 to 40 µM
Cc1c(C[C@@H](N)CO)sc2c(NCc3ccncn3)cnnc12 [Compound 23, (2R)-2-amino-3-(7-methyl-4-{[(pyrimidin-4-yl)methyl]amino}thieno[3,2-c]pyridazin-6-yl)propan-1-ol] | 10 to 40 µM | 10 to 40 µM
c1cc(CNc2cnnc3ccsc23)ccn1 [Compound 33, N-[(pyridin-4-yl)methyl]thieno[3,2-c]pyridazin-4-amine] | 10 to 40 µM | 10 to 40 µM
Cc1csc2c(NCc3ccncn3)cnnc12 [Compound 34, 7-methyl-N-[(pyrimidin-4-yl)methyl]thieno[3,2-c]pyridazin-4-amine] | 10 to 40 µM | 10 to 40 µM
Cc1csc2c(NCc3ccncc3F)cnnc12 [Compound 35, N-[(3-fluoropyridin-4-yl)methyl]-7-methylthieno[3,2-c]pyridazin-4-amine] | 10 to 40 µM | 10 to 40 µM
Cc1csc2c(NCc3ccccc3F)cnnc12 [Compound 36, N-[(2-fluorophenyl)methyl]-7-methylthieno[3,2-c]pyridazin-4-amine] | 10 to 40 µM | 10 to 40 µM
Cc1c(C[C@H](C)N)sc2c(NCc3ccccc3)cnnc12 [Compound 37, 6-[(2S)-2-aminopropyl]-N-benzyl-7-methylthieno[3,2-c]pyridazin-4-amine] | 0.501 to 5 µM | 0.501 to 5 µM
Clc1csc2c(NCc3ccncc3)cnnc12 [Compound 38, 7-chloro-N-[(pyridin-4-yl)methyl]thieno[3,2-c]pyridazin-4-amine] | 10 to 40 µM | 10 to 40 µM
Cc1c(C[C@@H](N)CO)sc2c(NCc3ccccc3)cnnc12 [Compound 39, (2R)-2-amino-3-[4-(benzylamino)-7-methylthieno[3,2-c]pyridazin-6-yl]propan-1-ol] | 0.501 to 5 µM | 0.501 to 5 µM
C[C@H](N)Cc1cc2nnc(Br)c(NCc3ccccc3)c2s1 [Compound 40, 6-[(2S)-2-aminopropyl]-N-benzyl-3-bromothieno[3,2-c]pyridazin-4-amine] | 10 to 40 µM | 10 to 40 µM
Brc1csc2c(NCc3ccncc3)cnnc12 [Compound 41, 7-bromo-N-[(pyridin-4-yl)methyl]thieno[3,2-c]pyridazin-4-amine] | 0.101 to 0.5 µM | 10 to 40 µM
Cc1c(C[C@@H](N)CCO)sc2c(NCc3ccccc3)cnnc12 [Compound 42, (3S)-3-amino-4-[4-(benzylamino)-7-methylthieno[3,2-c]pyridazin-6-yl]butan-1-ol] | 5 to 10 µM | 0.501 to 5 µM
